The values below come from patent US20090275648A1, “MACROCYCLIC GHRELIN RECEPTOR ANTAGONISTS AND INVERSE AGONISTS AND METHODS OF USING THE SAME” (priority 2005, published 2009).

The target of assay [1] is T1, human ghrelin receptor (hGHS-R1a) (Homo sapiens, UniProt Q92847).
T1 construct: purchased PerkinElmer BioSignal #RBHGHSM, lot#1887; host or cells: HEK-293 cells, stably transfected; membranes
Nature of the assay: Competitive radioligand binding assay (ghrelin receptor), [125I]-ghrelin, GHS-R/HEK 293 membranes. Particulars: competition with [125I]-ghrelin. The protocol: The competitive binding assay at the human growth hormone secretagogue receptor (HGHS-R1a) was carried out analogously to assays described in the literature. (Bednarek M A et al. Structure-function studies on the new growth hormone-releasing peptide ghrelin: minimal sequence of ghrelin necessary for activation of growth hormone secretagogue receptor 1a; J. Med. Chem. 2000, 43, 4370-4376; Palucki, B. L. et al. Spiro(indoline-3,4′-piperidine) growth hormone secretagogues as ghrelin mimetics; Bioorg. Med. Chem. Lett. […], 11, 1955-1957).
Membranes (GHS-R/HEK 293) were prepared from HEK-293 cells stably transfected with the human ghrelin receptor (hGHS-R1a). These membranes were provided by PerkinElmer BioSignal (#RBHGHSM, lot#1887) and utilized at a quantity of 0.71 μg/assay point. • 1. [^125]-Ghrelin (PerkinElmer, #NEX-388); final concentration: 0.0070-0.0085 nM • 2. […] Multiscreen Harvest plates-GF/C (Millipore, #MAHFC1H60) • 4. Deep-well polypropylene titer plate (Beckman Coulter, #267006) • 5. TopSeal-A (PerkinElmer, #6005185) • 6. Bottom seal (Millipore, #MATAH0P00) • 7. MicroScint-0 (PerkinElmer, #6013611) • 8. Binding Buffer: 25 mM Hepes (pH 7.4), 1 mM CaCl2, 5 mM MgCl2, 2.5 mM EDTA, 0.4% BSA
Competition experiments were performed in a 300 μl filtration assay format. • 1. 220 μL of membranes diluted in binding buffer • 2. 40 μL of compound diluted in binding buffer • 3.
Compounds were provided frozen on dry ice at a stock concentration of 10 mM diluted in 100% DMSO and stored at −80° C. until the day of testing. On the test day, compounds were allowed to thaw at rt overnight and then diluted in assay buffer according to the desired test concentrations. Under these conditions, the maximal final DMSO concentration in the assay was 0.1%.
In deep-well plates, 220 μL of diluted cell membranes (final concentration: 0.71 μg/well) were combined with 40 μL of either binding buffer (total binding, N=5), 1 μM ghrelin (non-specific binding, N=3) or the appropriate concentration of test compound N=2 for each test concentration). […] Plates were sealed with TopSeal-A, vortexed gently and incubated at rt for 30 min. The reaction was arrested by filtering samples through Multiscreen Harvest plates (pre-soaked in 0.5% polyethyleneimine) using a Tomtec Harvester, washed 9 times with 500 μL of cold 50 mM Tris-HCl (pH 7.4, 4° C.), and then plates were air-dried in a fumehood for 30 min. A bottom seal was applied to the plates prior to the addition of 25 μL of MicroScint-0 to each well. Plates were than sealed with TopSeal-A and counted for 30 sec per well on a TopCount Microplate Scintillation and Luminescence Counter (PerkinElmer) using a count delay of 60 sec. Results were expressed as counts per minute (cpm).
Data were analyzed by GraphPad Prism (GraphPad Software, San Diego, Calif.) using a variable slope non-linear regression analysis.
Dmax values were calculated using the following formula: […]
where total and non-specific binding represent the cpm obtained in the absence or presence of 1 μM ghrelin, respectively.

The target of assay [2] is T2, ghrelin receptor (Homo sapiens, UniProt Q92847). Nature of the assay: Aequorin functional assay (ghrelin receptor), Example 3. It counts as cell-based. Set-up: host or cells: CHO-K1 cells co-expressing Gα16 and mitochondrially targeted Aequorin. Conditions: for IC50: antagonist testing vs ghrelin at EC80 (3.7 nM). From the text: The functional activity of compounds of the invention found to bind to the GHS-R1a receptor can be determined using the method described below. (LePoul, E.; et al. Adaptation of aequorin functional assay to high throughput screening. J. Biomol. Screen. 2002, 7, 57-65; Bednarek, M. A.; et al. Structure-function studies on the new growth hormone-releasing peptide ghrelin: minimal sequence of ghrelin necessary for activation of growth hormone secretagogue receptor 1a. J. Med. Chem. 2000, 43, 4370-4376; Palucki, B. L.; et al. Spiro(indoline-3,4′-piperidine) growth hormone secretagogues as ghrelin mimetics. Bioorg. Med. Chem. Lett. 2001, 11, 1955-1957).
T2 sequence (Q92847 whole entry): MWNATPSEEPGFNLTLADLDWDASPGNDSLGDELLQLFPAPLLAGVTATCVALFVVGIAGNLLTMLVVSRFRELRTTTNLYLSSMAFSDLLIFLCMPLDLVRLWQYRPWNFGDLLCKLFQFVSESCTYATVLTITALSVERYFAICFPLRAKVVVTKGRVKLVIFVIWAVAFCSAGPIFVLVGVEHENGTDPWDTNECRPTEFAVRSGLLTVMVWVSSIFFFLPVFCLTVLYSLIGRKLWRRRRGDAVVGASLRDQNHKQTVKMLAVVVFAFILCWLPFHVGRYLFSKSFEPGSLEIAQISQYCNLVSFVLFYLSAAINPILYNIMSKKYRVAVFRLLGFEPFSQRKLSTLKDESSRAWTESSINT
Membranes were prepared using AequoScreen™ (EUROSCREEN, Belgium) cell lines expressing the human ghrelin receptor (cell line ES-410-A; receptor accession #60179). This cell line is constructed by transfection of the human ghrelin receptor into CHO-K1 cells co-expressing Gα16 and the mitochondrially targeted Aequorin (Ref #ES-WT-A5). • 1. Ghrelin (reference agonist; Bachem, #H-4864) • 2. Assay buffer: DMEM (Dulbecco's Modified Eagles Medium) containing 0.1% BSA (bovine serum albumin; pH 7.0. • 3. Coelenterazine (Molecular Probes, Leiden, The Netherlands)
Stock solutions of compounds (10 mM in 100% DMSO) were provided frozen on dry ice and stored at −20° C. prior to use. From the stock solution, mother solutions were made at a concentration of 500 μM 20-fold dilution in 26% DMSO. Assay plates were then prepared by appropriate dilution in DMEM medium containing 0.1% BSA. Under these conditions, the maximal final DMSO concentration in the assay was <0.6%.
AequoScreen™ cells were collected from culture plates with Ca^2+ and Mg^2+-free phosphate buffered saline (PBS) supplemented with 5 mM EDTA, pelleted for 2 minutes at 1000×g, re-suspended in DMEM-Ham's F12 containing 0.1% BSA at a density of 5×10^6 cells/ml and incubated overnight at room temperature in the presence of 5 μM coelenterazine. After loading, cells were diluted with assay buffer to a concentration of 5×10^5 cells/ml.
For agonist testing, 50 μl of the cell suspension was mixed with 50 μl of the appropriate concentration of test compound or ghrelin (reference agonist) in 96-well plates (duplicate samples). Ghrelin (reference agonist) is tested at several concentrations concurrently with the test compounds in order to validate the experiment. The emission of light resulting from receptor activation in response to ghrelin or test compounds was recorded using the Hamamatsu FDSS 6000 reader (Hamamatsu Photonics K.K., Japan).
For antagonist testing, an approximate EC80 concentration of ghrelin (i.e. 3.7 nM; 100 μL) was injected onto the cell suspension containing the test compounds (duplicate samples) 15-30 minutes after the end of agonist testing and the consequent emission of light resulting from receptor activation was measured as described in the paragraph above.
Results are expressed as Relative Light Units (RLU). […] For agonist testing, results for each concentration of test compound were expressed as percent activation relative to the signal induced by ghrelin at a concentration equal to the EC80 (i.e. 3.7 nM). EC50, Hill slope and % Emax values are reported.
For antagonist testing, results for each concentration of test compound were expressed as percent inhibition relative to the signal induced by ghrelin at a concentration equal to the EC80.

The target of assay [3] is T2, ghrelin receptor. Nature of the assay: Inverse agonist assay, Example 4. Format: cell-based. Particulars: inverse agonist activity. The source says:
The inverse agonist activity at the ghrelin receptor for compounds of the invention can be determined using the methods described in Intl. Pat. Appl. Publ. No. WO 2004/056869 and Holst, B.; Cygankiewicz, A.; Halkjaer, T.; Ankersen, A.; Schwartz, T. W. High constitutive signaling of the ghrelin receptor—identification of a potent inverse agonist. Mol. Endocrinol. 2003, 17, 2201-2210.

T1 sequence (Q92847 whole entry): as above

As usually defined, the Ki is the equilibrium dissociation constant of an inhibitor or competing ligand from its target. High values mean a looser hold on the target, low ones a stronger hold on the target. A word on the IC50: it is the concentration at which inhibition is half-maximal. Read a low IC50 as inhibition by little substance. With `CCC(C)[C@@H]1NCCOc2ccccc2CCCNC(=O)[C@@H](Cc2ccccc2)NC(=O)[C@@H](CO)N(C)C1=O` (stereo in doubt) [Compound 152], the Ki in assay [1] was 0.1 to 1 µM. Besides, the “receptor activation (agonist activity)” value on ghrelin receptor [2] (agonist testing, in comparison to known ghrelin agonists) is “no receptor activation”. Moreover, the IC50 against ghrelin receptor [2] is 0.1 to 1.5 µM; on ghrelin receptor [3], greater than 10 µM.

For `CCC(C)[C@@H]1NCCOc2ccccc2CCCNC(=O)[C@@H](Cc2ccccc2)NC(=O)[C@@H](C)NC1=O` (stereo partly drawn) [Compound 2], the inhibitory constant (Ki) in assay [1] fell in the range of 0.1 to 1 µM.

Molecule `CCC(C)[C@@H]1NCCOc2ccccc2/C=C/CNC(=O)[C@H](Cc2ccccc2)NC(=O)[C@@H](C)NC1=O` (stereo partly drawn) [Compound 14] came in with a Ki in assay [1] of 0.1 to 1 µM.

In assay [1], `CCC[C@@H]1NCCOc2ccccc2CCCNC(=O)[C@@H](Cc2ccccc2)NC(=O)[C@H](C)NC1=O` [Compound 59] yielded a Ki of 1 to 10 µM.

In assay [1], `CCC[C@@H]1NCCOc2ccccc2CCCNC(=O)[C@@H](Cc2ccccc2)NC(=O)[C@@H](C)NC1=O` [Compound 60] gave a Ki of 0.1 to 1 µM.

The molecule `CCC[C@@H]1NCCOc2ccccc2CCCNC(=O)[C@@H](Cc2ccccc2)NC(=O)[C@H](C)N(C)C1=O` [Compound 79] registered a Ki in assay [1] of 0.1 to 1 µM.

In assay [1], `CC(C)C[C@@H]1NCCOc2ccccc2CCCNC(=O)[C@H](Cc2ccccc2)NC(=O)[C@H](C)NC1=O` [Compound 93] showed a Ki of 1 to 10 µM.

For `CC(C)C[C@@H]1NCCOc2ccccc2CCCNC(=O)[C@H](Cc2ccccc2)NC(=O)[C@@H](C)NC1=O` [Compound 94], the Ki in assay [1] was 1 to 10 µM.

For `CCC(C)[C@@H]1NCCOc2ccccc2CCCNC(=O)[C@@H](Cc2ccccc2)NC(=O)[C@@H](CO)NC1=O` (stereo partly drawn) [Compound 151], in assay [1], the inhibition constant Ki fell in the range of 1 to 10 µM.

The molecule `CCC(C)[C@@H]1NCCOc2ccccc2CCCNC(=O)[C@@H](Cc2ccccc2)NC(=O)[C@@H](COC(C)(C)C)NC1=O` (stereo partly drawn) [Compound 215] yielded a Ki in assay [1] of 1 to 10 µM.

In turn, `CCC(C)[C@@H]1NCCOc2ccccc2CCCNC(=O)[C@@H](Cc2ccc(F)cc2)NC(=O)[C@@H](COCc2ccccc2)N(C)C1=O` (stereo partly drawn) [Compound 501] came in with an inhibition constant Ki in assay [1] of 0.1 to 1 µM.

In the case of `CCC(C)[C@@H]1NCCOc2ccccc2CCCNC(=O)[C@@H](Cc2ccccc2)NC(=O)[C@H](C(C)O)N(C)C1=O` (stereo partly drawn) [Compound 503], the Ki in assay [1] is 0.001 to 0.1 µM. Besides, the half-inhibitory concentration (IC50) lay in the range of 0.001 to 0.1 µM against ghrelin receptor [2] and 0.1 to 1 µM at ghrelin receptor [3].

As to `CCC(C)[C@@H]1NCCOc2ccccc2/C=C/CNC(=O)[C@@H](Cc2ccc(F)cc2)NC(=O)[C@H](C(C)O)N(C)C1=O` (stereo partly drawn) [Compound 504], the Ki in assay [1] lay in the range of 0.001 to 0.1 µM. Moreover, the values for the 50% inhibitory concentration (IC50) at ghrelin receptor [2] and on ghrelin receptor [3] were 0.001 to 0.1 µM and 0.1 to 1 µM, respectively.

Consider `CC(O)[C@H]1C(=O)N[C@H](Cc2ccc(F)cc2)C(=O)NCCCc2ccccc2O[C@H](C)CN[C@@H](C2CC2)C(=O)N1C` (stereo partly drawn) [Compound 505], for which the inhibition constant Ki in assay [1] fell in the range of 0.1 to 1 µM. In addition, the IC50 at ghrelin receptor [2] lay within 0.1 to 1.5 µM; at ghrelin receptor [3], 0.1 to 1 µM.

`CCC(C)[C@@H]1NCCOc2ccccc2CCCNC(=O)[C@@H](Cc2ccccc2)NC(=O)[C@H](CCO)N(C)C1=O` (stereo partly drawn) [Compound 506] displayed a Ki in assay [1] of 0.1 to 1 µM. Further, the IC50 is 0.1 to 1.5 µM on ghrelin receptor [2] and greater than 10 µM on ghrelin receptor [3].

`CCC(C)[C@@H]1NCCOc2ccccc2/C=C\CNC(=O)[C@@H](Cc2ccc(F)cc2)NC(=O)[C@H](C(C)O)N(C)C1=O` (stereo partly drawn) [Compound 508] registered a Ki in assay [1] of 0.001 to 0.1 µM. The IC50 against ghrelin receptor [2] is 0.1 to 1.5 µM.

`CC[C@@H](C)[C@H]1NCCOc2ccccc2CCCNC(=O)[C@@H](Cc2ccccc2)NC(=O)[C@H]([C@H](C)O)N(C)C1=O` [Compound 509] gave a Ki in assay [1] of 0.1 to 1 µM. On ghrelin receptor [2], this molecule displayed an IC50 greater than 1.5 µM.
